Data on eight molecules can be found in patent US20080113956A1, “Substituted Porphyrins” (priority 1997, published 2008).

Data set [1] can be described thus: Electrochemistry: metal-centered redox potential. The format is physicochemical. Particulars: metal centered, vs NHE, pH 7.8 if not otherwise specified. The method, then:
Electrochemistry. The electrochemical characterization was performed as described previously on a Voltammetric Analyzer Model 600 (CH instrument) using a glassy carbon electrode (Ag/AgCl reference and Pt auxiliary electrodes), at 0.5 mM porphyrin, pH 7.8 (0.05 M phosphate buffer), 0.1 M NaCl. The potentials were standardized against potassium ferricyanide/potassium ferrocyanide couple (Batinic-Haberle et al, Arch. Biochem. Biophys. 343:225 (1997); Kolthof et al, J. Phys. Chem. 39:945 (1974)).
Electrochemistry. The metal-centered redox behavior of all metalloporphyrin products was reversible. The half-wave potentials (E^O1/2) were calculated as the average of the cathodic and anodic peaks and are given in mV vs NHE (Table 5). The average shift per chlorine is +55 mV (Table 5), which is in agreement with the values previously reported for H2TPP derivatives (between −50 and +70 mV) (Sen et al, Chem. Soc. Faraday Trans. 93:4281 (1997); Autret et al. J. Chem. Soc. Dalton Trans. 2793 (1996); Hariprasad et al, J. Chem. Soc. Dalton Trans. 3429 (1996); Tagliatesta et al, Inorg. Chem. 35:5570 (1996); Ghosh, J. Am. Chem. Soc. 117:4691 (1995); Takeuchi et al, J. Am. Chem. Soc. 116:9730 (1994); Binstead et al, Inorg. Chem. 30:1259 (1991); Giraudeau et al, J. Am. Chem. Soc. 101:3857 (1979)). This shift appears to be higher (˜+65 mV) between 0 and 1, and between 2 and 3 chlorines (Table 5). […] The manganese redox state of MnCl4TE-2-PyP^5 (E^O1/2=+448 mV) and MnOBTMPyP^4+ (E^O1.2=+480 mV) is 3+ and 2+, respectively. This difference may be explained by their difference in terms of redox potential (˜30 mV) but also by structural considerations, for instance an increased distortion of the porphyrin ring in the case of MnOBTMPyP^4+. (Batinic-Haberle et al, Arch. Biochem. Biophys. 343:225 (1997); Ochsenbein et al, Angew. Chem. Int. Ed. Engl. 33:348 (1994)).

In another data set the test system is rat brain homogenates. Nature of the data set: Iron/ascorbate mediated lipid peroxidation of rat brain homogenates (TBARS). The note with it: for IC50: rat brain homogenate, 30 minutes incubation with iron and ascorbate, TBARS. The format is biochemical. On the procedure:
Frozen adult Sprague-Dawley rat brains (Pel-Freez, Rogers, Ark.) were homogenized with a polytron (Turrax T25, Germany) in 5 volumes of ice cold 50 mM potassium phosphate at pH 7.4. Homogenate protein concentration was determined with the Coomassie Plus protein assay (Pierce, Rockford, Ill.) using bovine serum albumin as a standard. The homogenate volume was adjusted with buffer to give a final protein concentration of 10 mg/ml and frozen as aliquots at […].
Rat brain homogenates (2 mg protein) were incubated with varying concentrations of antioxidant at 37° C. for 15 minutes. Oxidation of the rat brain homogenate was initiated by the addition of 0.1 ml of a freshly prepared anaerobic stock solution containing iron(II) chloride (0.25 mM) and ascorbate (1 mM) as previously reported (Braughler et al, J. Biol. Chem. 262:10438 (1987)). Samples (final volume 1 ml) were placed in a shaking water bath at 37° C. for 30 minutes. The reactions were stopped by the addition of 0.1 ml of a stock butylated hydroxytoluene (60 mM) solution in ethanol.
The concentration of thiobarbituric acid reactive species (TBARS) in rat brain homogenates was used as a index of lipid peroxidation (Bernhem et al, J. Biol. Chem. 174:257 (1948); Witz et al, J. Free Rad. Biol. Med. 2:33 (1986); Kikugawa et al, Anal. Biochem. 202:249 (1992); Jentzsch et al, Free Rad. Biol. Med. 20P251 (1996)). Malondialdehyde standards were obtained by adding 8.2 μl of 1,1,3,3-tetramethoxypropane in 10 ml of 0.01 M HCl and mixing for 10 minutes at room temperature. This stock was further diluted in water to give standards that ranged from 0.25 to 25 μM. Samples or standards (200 μl) were acidified with 200 μl of 0.2 M phosphoric acid in 1.5 ml locking microfuge tubes. The color reaction was initiated by the addition of 25 μl of a 0.11M thiobarbituric acid solution and samples were placed in a 90° C. heating block for 45 minutes. TBARS were extracted with 0.5 ml of n-butanol by vortexing samples for 3 minute and chilling on ice for 1 minute. The samples were then centrifuged at 12,000×g for 3 minutes, 150 μl aliquots of the n-butanol phase were placed in each well of a 96-well plate and read at 535 nm in a Thermomax platereader (Molecular Devices, Sunnyvale, Calif.) at 25° C. Sample absorbencies were converted to MDA equivalencies (μM) by extrapolation from the MDA standard curve. None of the antioxidants at concentrations employed in these studies affected the reaction of MDA standards with thiobarbituric acid and reactions without TBA were used as subtraction blanks.
Data were presented as their means ±SE. The inhibitory concentration of antioxidants that decreased the degree of lipid peroxidation by 50% (IC50) and respective 95% confidence intervals (CI) were determined by fitting a sigmoidal curve with variable slope to the data (GraphPad Prizm, San Diego, Calif.).

A short description of data set [2]: SOD activity in U/mg (reduction of cytochrome c or photoreduction of NBT). Particulars: unit = amount that inhibits one half the reduction of cytochrome c or photoreduction of NBT. Type of data set: biochemical.
The conditions of data set [3]: cited from earlier work; for kcat of comparison compounds: literature comparators.
For data set [4] the following is noted: vs NHE; literature comparators; cited from earlier work.

Turning to “CuZnSOD: dimeric copper- and zinc-containing superoxide dismutase enzyme; bovine in Example VIII”, in data set [1], the “Redox Potential (E1/2)” value is “+0.35 V”. 15 µM corresponded to half-maximal inhibition with rat brain homogenates (IC50). In data set [2], the SOD is recorded as 5,100 U/mg. Further, the “kcat of comparison compounds” value in data set [3] is listed as 200 10^7 M^−1 s^−1. Further, the “kcat per active site” value in data set [3] (per active site) is 10^9 M^−1s^−1. Besides, the “E°1/2 half-wave potential of comparison compounds” value in data set [4] is “+260 mV”.
Turning to `C[n+]1ccc(-c2c3nc(c(-c4cc[n+](C)cc4)c4[n-]c(c(Br)c4Br)c(-c4cc[n+](C)cc4)c4nc(c(-c5cc[n+](C)cc5)c5[n-]c2c(Br)c5Br)C(Br)=C4Br)C(Br)=C3Br)cc1.[Mn+3]` [MnOBTM-4-PyP, Manganese β-octabromo-meso-tetrakis-(N-methylpyridinium-4-yl)porphyrin], the “Redox Potential (E1/2)” value in data set [1] is given as “+0.48 V”. The molecule further showed an IC50 in the data set with rat brain homogenates of 1.3 µM. Moreover, the SOD in data set [2] is given as 18,460 U/mg. The “kcat of comparison compounds” value in data set [3] is 22 10^7 M^−1 s^−1. Moreover, the “E°1/2 half-wave potential of comparison compounds” value in data set [4] was “+480 mV”.
For `C[n+]1ccccc1-c1c2nc(c(-c3cccc[n+]3C)c3ccc([nH]3)c(-c3cccc[n+]3C)c3nc(c(-c4cccc[n+]4C)c4ccc1[nH]4)C=C3)C=C2.[Zn+2]` [ZnTM-2-PyP], in the data set with rat brain homogenates, the IC50 came out at 591 µM. Moreover, the SOD entry in data set [2] is given as “trace”.
`Cc1c(C)c2c(c(C)c1O)CCC(C)(C(=O)O)O2` (centres unmarked) [Trolox] returned an IC50 in the data set with rat brain homogenates of 204 µM.
Turning to `O=C(O)c1ccc(-c2c3nc(c(-c4ccc(C(=O)O)cc4)c4ccc([nH]4)c(-c4ccc(C(=O)O)cc4)c4nc(c(-c5ccc(C(=O)O)cc5)c5ccc2[nH]5)C=C4)C=C3)cc1.[Fe+3]` [FeTBAP, Ferric 5,10,15,20-tetrakis(4-benzoic acid) porphyrin], the “Redox Potential (E1/2)” value in data set [1] is listed as “+0.01 V”. This molecule also displayed an IC50 with rat brain homogenates of 212 µM. In data set [2], the SOD worked out at 24 U/mg.
In the data set on rat brain homogenates, `C[n+]1ccc(-c2c3nc(c(-c4cc[n+](C)cc4)c4ccc([nH]4)c(-c4cc[n+](C)cc4)c4nc(c(-c5cc[n+](C)cc5)c5ccc2[nH]5)C=C4)C=C3)cc1.[Zn+2]` [ZnTM-4-PyP] showed an IC50 of 241 µM. Also, the SOD result in data set [2] is reported as “trace”.
Consider MnTBAP, for which the “Redox Potential (E1/2)” value in data set [1] was −0.19 V. For the same molecule, in the data set on rat brain homogenates, it took 29 µM to reach half-maximal inhibition (IC50). The molecule also gave an SOD in data set [2] of 179 U/mg.

B1: catalase: enzymatic antioxidant (protein, UniProt P04040 2-527, looked up)
Catalase: ADSRDPASDQMQHWKEQRAAQKADVLTTGAGNPVGDKLNVITVGPRGPLLVQDVVFTDEMAHFDRERIPERVVHAKGAGAFGYFEVTHDITKYSKAKVFEHIGKKTPIAVRFSTVAGESGSADTVRDPRGFAVKFYTEDGNWDLVGNNTPIFFIRDPILFPSFIHSQKRNPQTHLKDPDMVWDFWSLRPESLHQVSFLFSDRGIPDGHRHMNGYGSHTFKLVNANGEAVYCKFHYKTDQGIKNLSVEDAARLSQEDPDYGIRDLFNAIATGKYPSWTFYIQVMTFNQAETFPFNPFDLTKVWPHKDYPLIPVGKLVLNRNPVNYFAEVEQIAFDPSNMPPGIEASPDKMLQGRLFAYPDTHRHRLGPNYLHIPVNCPYRARVANYQRDGPMCMQDNQGGAPNYYPNSFGAPEQQPSALEHSIQYSGEVRRFNTANDDNVTQVRAFYVNVLNEEQRKRLCENIAGHLKDAQIFIQKKAVKNFTEVHPDYGSHIQALLDKYNAEKPKNAIHTFVQSGSHLAAREKANL
As for B1, in the data set on rat brain homogenates (up to concentrations of 1 mg/ml), the “inhibition of iron/ascorbate-initiated lipid peroxidation” value was “did not inhibit”.
